Measurements taken from article PMC6776562, “Inhibition of Rac1-dependent forgetting alleviates memory deficits in animal models of Alzheimer’s disease” (Protein & Cell, 2019).

Columns and labels:
Rac1 = Rac1 (Mus musculus, UniProt P63001); assay: Rac1 activity (Rac1-GTP/total Rac1) in hippocampal tissue by PAK-PBD pull-down and Western blot after drug administration; type: in vivo, APP/PS1 mice; conditions: APP/PS1 mice (eight-month-old); oral CS7171 50 mg/kg, CS7170 50 mg/kg, JKF-034 40 mg/kg once per day
Description: We first assayed Rac1 activity in hippocampal tissues from AD patients and healthy age-matched, non-demented controls (Detailed information is provided in Table 1). The levels of the guanosine triphosphate (GTP)-bound active form of Rac1 were measured using the p21-binding domain (PBD) pull-down assay. The GTP-bound active form of Rac1 was pulled down through the interactive p21-activated kinase (PAK) fragment using PAK-PBD beads and measured using a Western blot assay (Fig. 1A), as described in previous studies (Shuai et al., [2010]; Liu et al., [2016]) from our laboratory and studies conducted by other research groups (Sander et al., [1998]; Barnes et al., [2008]). The total amount of Rac1 and actin were also evaluated using the Western blot analyses (See MATERIALS AND METHODS). […] Since there were no significant differences in total Rac1 levels between the experimental and control groups (See representative Western blot in all relevant figures), the ratio of Rac1-GTP to total Rac1 was taken as a measure of Rac1 activity. […] Consistent with this observation, Rac1 activity was also elevated in the hippocampus of APP/PS1 mice at different age (Fig. 1D). […] This increase was more pronounced in older flies (Fig. S1F).
Mice were treated with EHop-016 (10 mg/kg), CS7170 (50 mg/kg), CS7171 (50 mg/kg), and JKF-034 (40 mg/kg). These drugs were dissolved in saline (0.9% NaCl) containing 0.5% Tween-80 (Sigma P4780). Each mouse received 200 μL of the solution by intragastric administration once per day (administered at 9:00 am). The drug administration was started seven days before the beginning of the Morris water maze (MWM) task and was continued until the end of the assay. All control groups were fed with vehicle solution.
(§1) The hippocampal tissues from human subjects and mice were harvested and stored in a liquid nitrogen tank for biochemical assay. The tissues were homogenized in cold lysis buffer (Merck-Millipore, 20-168). The insoluble debris were removed after centrifugation at 13,000 rpm (for 10 min, at 4 °C). For GTP-bound Rac/Cdc42, lysates were incubated with GST-tagged PAK (p21-activated kinase)-PBD agarose beads (Cytoskeleton, PAK02) overnight at 4 °C. On the second day, the beads were washed three times with lysis buffer before subjecting them to SDS-PAGE (15%) and transferring them onto nitrocellulose membranes (Millipore, HATF00010). The membranes were incubated with primary antibodies (for Rac1: BD Transduction Laboratories, #610650, 1:2,000 dilution; for Cdc42, Santa Cruz Biotechnology, lot No. sc-8401, 1:500 dilution) overnight at 4 °C and with HRP-conjugated goat anti-mouse IgG (Cell Signaling Technology, #7076) for 1 h at room temperature. Intensities of the detected bands were analyzed using ImageJ software (National Institutes of Health). The total amount of Rac1 in the lysate was detected using a routine Western blot procedure. RhoA-GTP levels were measured by using the Rho-GTP monoclonal antibody (New East, lot No. 26904, Dilution: 1:1,000). Information regarding the other antibodies used is as follows: anti-RhoA (67B9), Cell Signaling, lot No. #2117, dilution: 1:1,000; anti-Actin, Clone C4, Millipore, lot No. #3018859, dilution: 1:2,000; anti-Amyloid 1-42 6E10, BioLegend, lot No. 803001, dilution: 1:1,000; anti-Phospho-PAK1 (Ser144)/PAK2 (Ser141), Cell Signaling, lot No. #2606, dilution: 1:1,000.

Aβ42 = Aβ42 level by Western blot (6E10 antibody) after drug administration; type: in vivo, APP/PS1 mice; conditions: for level of Aβ42 monomer: 7-month-old APP/PS1 mice, two weeks of P.O administration
Description: as §1, with “([…])/PAK2 ([…]),” for “(Ser144)/PAK2 (Ser141),”, “1:1,000. page 2: A Representative […] blot of AE42 detected by AE42 monoclonal antibody (6E10) after two weeks of administration (P.O) of CS7171 and JKF-034 in 7-month-old APP/PS1 mice. B The level of AE42 monomer was decreased by JKF-034. […] D Representative […] blot of total RhoA, total Cdc42, RhoA-GTP, and Cdc42-GTP after two weeks of drug administration (P.O) of CS7171 and JKF-034 in 7-month-old APP/PS1 mice. […] Data information: All values are expressed as mean r SEM.” for “1:1,000.”

Compound | hippocampal Rac1 activity (Rac1-GTP/total Rac1) (Rac1) | level of Aβ42 monomer (Aβ42) | Aβ42 accumulation (Aβ42; APP/PS1 mice, Fig. S4A–C)
O=C1NN(c2ccc(Cl)c(Cl)c2)C(=O)C1=Cc1ccc(O)c(N(O)O)c1 [CS7171] | inhibited hippocampal Rac1 activity | did not aff ect | 
O=S(=O)(c1ccccc1)N1CCN(Cc2ccccc2)CC1 [JKF-034] | inhibited Rac1 activity | decreased | reduction
